For assay [1], the system named is CD8+ T cells. The assay can be described thus: IFNγ ELISPOT, ZIKV-infected Ifnar-/- HLA-A*0101 transgenic mice. Type of assay: cell-based, mouse. As to conditions: HLA-A*0101 mice; for SFC/10^6 CD8+ T cells, FSS13025: 7 days after ZIKV FSS13025; for SFC/10^6 CD8+ T cells, MR766: 7 days after ZIKV MR766; for immunodominance in IFNγ ELISPOT: immunodominant: >500 SFCs/10^6 CD8+ T cells, shared by both ZIKV strains. As to the method: Two ZIKV strains, MR766 (Uganda, 1947) and FSS13025 (Cambodia, 2010), were obtained from the World Reference Center for Emerging Viruses and Arboviruses (WRCEVA). The mouse-adapted DENV2 strain S221 is a triple-plaque purified clone derived from DENV2 D2S1038. Both ZIKV and DENV2 were amplified in C6/36 mosquito cells, and viral titers were measured using baby hamster kidney (BHK)-21 cell-based focus forming assay (FFA). For epitope screening, 5-week old mice (female or male) were infected retro-orbitally (R.O.) with either 1×102 FFU of ZIKV FSS13025 or ZIKV MR766, or 2×10^4 FFU of DENV2 S221 in 200 μl 10% FBS/PBS. Seven days after infection, CD8^+ T cells were isolated from splenocytes and used for ELISPOT assay, while the splenocytes were directly used for ICS assay. Additionally, 5-week old mice were inoculated I.P. with 2×10^3 FFU of DENV2 S221 for 4 weeks.
CD8^+ T cells were isolated from splenocytes using magnetic bead positive selection (Miltenyi Biotec, Germany) 7 days after virus infection. 2×10^5 CD8^+ T cells were stimulated with 1×10^5 LPS-blasts loaded with 10 μg of individual peptide in 96-well flat-bottom plates (IMMOBILON™-P; Millipore, Bedford, Mass.) that were coated with anti-IFNγ mAb (clone AN18; Mabtech, Stockholm, Sweden) in triplicate. Concanavalin A (ConA) was used as positive control. After 20 hours of incubation, biotinylated anti-mouse IFNγ mAb (R4-6A2; Mabtech), followed by ABC peroxidase (Vector Laboratories, Burlingame, Calif., USA) and then 3-amino-9-ethylcarbazole (Sigma-Aldrich, St. Louis, Mo., USA) were added into the wells. […] A peptide inducing a magnitude of >500 SFCs/10^6 CD8^+ T cells was considered as an immunodominant peptide.
The following results are with respect to FIG. 9, where IFNγ ELISPOT was performed using CD8+ T cells isolated from Ifnar^−/− HLA-B*0702 transgenic mice (a and b) and Ifnar^−/− HLA-A*0101 transgenic mice (d and e) 7 days after retro-orbital (R.O.) infection with 1×10^2 FFU of ZIKV strain FSS13025 or MR766. Two independent experiments performed in triplicate were averaged and the error bars represent the SEM. The data are expressed as the mean number of spot forming cells (SFC) per 10^6 CD8^+ T cells. The criteria for positivity were net SFC per 10^6 cells of >20, and a stimulation index of >2.0 when compared with the negative control. Dotted lines represent the cutoff value. * Indicates a positive response. All positive peptides were grouped according the corresponding ZIKV protein (c and f); white and black bars are the total IFNγ response of all identified positive peptides from an indicated protein; numbers in parentheses are the number of positive peptides in this protein. ConA denotes Concanavalin A.

Assay [2] has as its system CD8+ T cells. The assay can be described thus: IFNγ-ELISPOT of predicted H-2b-binding ZIKV peptides. As to conditions: CD8+ T cells of mice infected with MR766 or FSS13025, day 7; positive: SFC per 10^6 CD8+ T cells ≥20 and stimulation index ≥2. Type of assay: cell-based, mouse. As to the method:
CD8^+ T cells were isolated by magnetic bead positive selection (Miltenyi Biotec, Germany). A total of 2×10^5 CD8^+ T cells were stimulated with 1×10^5 LPS-blast cells as antigen presenting cells (APCs) and 10 μg of individual ZIKV-derived peptide in 96-well flat-bottom plates (IMMOBILON™-P; Millipore, MA) coated with anti-mouse IFNγ monoclonal antibody (mAb) (clone AN18; Mabtech, Sweden) in triplicate. IFNγ-ELISPOT was performed as previously detailed (Elong Ngono et al., 2016). Positive peptides were those with a number of spot-forming cells (SFC) per 10^6 CD8^+ T cells ≥20 and a stimulation index ≥2 based on the negative control (DMSO). […]
The following results are with reference to FIG. 3A and FIG. 3B, where five-week-old LysMCre^+IFNAR^fl/fl were infected retro-orbitally with 10^4 FFU of ZIKV MR766 or FSS13025. […] A total of 244 peptides from ZIKV strains predicted to bind H-2Kb and H-2db with high affinity were screened. Two independent experiments for each ZIKV strain (n=5 mice for each experiment) were performed in triplicate per peptide. The data are expressed as the mean of spot forming cells (SFC) per 10^6 CD8^+ T cells, and error bars are represented as SEM. One-way ANOVA was used to compare the mean of each peptide with the control (DMSO) ([…]). […] The dotted line corresponds to the average amount of IFNγ produced by MOCK mice when stimulated with positive ZIKV-derived peptides (0.19% of IFNγ+CD8^+ T cells).

Regarding MSALEFYSY [FSS/MR-NS4B270-278], in the assay on CD8+ T cells [1], the “SFC/10^6 CD8+ T cells, FSS13025” value amounted to 378 SFC/10^6 CD8+ T cells.

In the case of VTRRGNAYY [FSS-C125-prM8], the “SFC/10^6 CD8+ T cells, MR766” value with CD8+ T cells [1] is 266 SFC/10^6 CD8+ T cells.

Turning to YLDKQSDTQY [FSS/MR-E81-90], in the assay on CD8+ T cells [1], the “SFC/10^6 CD8+ T cells, FSS13025” value stood at 495 SFC/10^6 CD8+ T cells and the “SFC/10^6 CD8+ T cells, MR766” value was 258 SFC/10^6 CD8+ T cells.

Turning to YLAGASLIY [FSS/MR-NS4B231-239], in the assay on CD8+ T cells [1], the “SFC/10^6 CD8+ T cells, FSS13025” value worked out at 1646 SFC/10^6 CD8+ T cells; the “SFC/10^6 CD8+ T cells, MR766” value was 1574 SFC/10^6 CD8+ T cells; the “immunodominance in IFNγ ELISPOT” value is recorded as “most immunodominant epitope”.

In the case of FSDLYYLTM [FSS/MR-E198-206], in the assay with CD8+ T cells [1], the “SFC/10^6 CD8+ T cells, FSS13025” value is 398 SFC/10^6 CD8+ T cells and the “SFC/10^6 CD8+ T cells, MR766” value came to 388 SFC/10^6 CD8+ T cells.

Regarding YAQMWQLLY [FSS/MR-NS5509-517], in the assay with CD8+ T cells [1], the “SFC/10^6 CD8+ T cells, FSS13025” value was determined as 313 SFC/10^6 CD8+ T cells and the “SFC/10^6 CD8+ T cells, MR766” value worked out at 225 SFC/10^6 CD8+ T cells.

On to GLDFSDLYY [FSS/MR-E195-203], for which, in the assay with CD8+ T cells [1], the “SFC/10^6 CD8+ T cells, FSS13025” value was 993 SFC/10^6 CD8+ T cells; the “SFC/10^6 CD8+ T cells, MR766” value came to 647 SFC/10^6 CD8+ T cells; the “immunodominance in IFNγ ELISPOT” value is reported as “immunodominant”.

For the substance MTERFQEAI [FSS/MR-NS4A14-22], the “SFC/10^6 CD8+ T cells, MR766” value in the assay on CD8+ T cells [1] came out at 266 SFC/10^6 CD8+ T cells.

Take ETDENRAKV [FSS/MR-E159-167]: in the assay on CD8+ T cells [1], the “SFC/10^6 CD8+ T cells, FSS13025” value is given as 512 SFC/10^6 CD8+ T cells; the “SFC/10^6 CD8+ T cells, MR766” value was 516 SFC/10^6 CD8+ T cells; the “immunodominance in IFNγ ELISPOT” value was “immunodominant”.

With DVEAWRDRY [FSS/MR-NS123-31], in the assay with CD8+ T cells [1], the “SFC/10^6 CD8+ T cells, FSS13025” value came out at 583 SFC/10^6 CD8+ T cells; the “SFC/10^6 CD8+ T cells, MR766” value is on record as 260 SFC/10^6 CD8+ T cells; the “immunodominance in IFNγ ELISPOT” value was “immunodominant”.

For the substance ELDPPFGDSY [FSS/MR-E377-386], the “SFC/10^6 CD8+ T cells, FSS13025” value in the assay on CD8+ T cells [1] is on record as 286 SFC/10^6 CD8+ T cells.

In the case of 4 (MSYECPML) [compound 4], the “Strains (ZIKV strain for which the peptide induced a positive T cell response, IFNγ-ELISPOT)” value (from here on “Strains”) in the assay on CD8+ T cells [2] is “MR766”.

Turning to FTDPSSIAA [FSS/MR-NS3272-280], the “SFC/10^6 CD8+ T cells, MR766” value with CD8+ T cells [1] was determined as 286 SFC/10^6 CD8+ T cells.

As for 17 (TLGMNKCYI) [compound 17], the “Strains” value in the assay with CD8+ T cells [2] is “FSS”.

As to 1 (AAFTFTKV) [compound 1], in the assay on CD8+ T cells [2], the “Strains” value is “MR766”.

As for 13 (VMIFLSTAV) [compound 13], the “Strains” value with CD8+ T cells [2] is “MR766”.

In the case of 10 (SSWLWKEL) [compound 10], in the assay with CD8+ T cells [2], the “Strains” value was “MR766”.

As to 22 (MAVDMQTLTPV) [compound 22], in the assay on CD8+ T cells [2], the “Strains” value is reported as “MR766/FSS”.

Take HMCDATMSY [FSS/MR-prM40-48]: the “SFC/10^6 CD8+ T cells, FSS13025” value with CD8+ T cells [1] came to 288 SFC/10^6 CD8+ T cells.

For 23 (RMAVLGDTA) [compound 23], in the assay with CD8+ T cells [2], the “Strains” value is recorded as “MR766/FSS”.

In the case of 26 (SQLTPLTLI) [compound 26], the “Strains” value in the assay with CD8+ T cells [2] is listed as “MR766/FSS”.

For the substance 2 (AAGAWYVYV) [compound 2], in the assay on CD8+ T cells [2], the “Strains” value is “MR766”.

On to 20 (CAEAPNMKVI) [compound 20], for which, in the assay with CD8+ T cells [2], the “Strains” value is recorded as “MR766/FSS”.

Values taken from US11806393B2, “Flavivirus peptide sequences, epitopes, and methods and uses thereof” (priority 2017, dated 2023).
